Experimental findings from US6949528B1, “Compositions containing lysophosphatidic acids which inhibit apoptosis and uses thereof” (priority 1998, dated 2005) are described below.

Format in all cases: cell-based
One assay deals with C3H/10T1/2 cells. Briefly: Anti-apoptotic activity assay: serum deprivation of C3H/10T1/2 cells. An excerpt: In order to determine the […] of the claimed invention, the following method of analysis was used. The cell assay is described in detail in U.S. Pat. Nos. 5,637,486, 5,620,888, and 5,681,703, and Tomei et al. (1993) Proc Natl. Aci. 90:853-857. Briefly, mouse fibroblast C3H/10T1/2 cells (clone 8) were obtained from ATCC (Rockville, Md.) and were maintained in exponential growth phase in which the cell cycle is randomly distributed and no cells are arrested in G0, and in quiescence. Exponential growth phase was assured by seeding at 2000 cells per 1 ml (5 ml for 60 mm culture plate) five days prior to the beginning of the experiment. Assays were performed on cells only up to passage 15. At T=0, cultures were transferred to serum-free medium, as an appropriate stimulus, and seed extracts were added. Controls included 10^−7 and 5×10^−8 M 12-O-tetradecanoyl phorbol-13-acetate (TPA) to ensure the responsiveness of the cell culture. The samples were added to serum free medium and sterile filtered prior to addition to the cultures. Assays were performed in triplicate or quadruplicate. Analyses of the cell responses were made between 18 and 28 hours of serum deprivation. Two assays were performed on each cell culture plate consisting of differential cell counts.
1. All non-adherent or loosely adherent cells were removed from the culture dish and counted by appropriate techniques, typically counting by electronic particle counting instrument. These are the apoptotic cells, the serum deprived released cells (SDR), released by the action of cultivation in serum-free medium. Approximately 95% of these released cells are apoptotic as shown by both ultrastructure analysis and DNA fragmentation analysis.
2. The remaining adherent cells (ADH) were exposed to a buffered, typically pH 7.3, balanced salt solution such as a Hanks Balanced Salt Solution without calcium and magnesium salts containing 0.05% trypsin and 0.53 mM ethylene diaminetetraacetic acid (EDTA). Each culture was incubated at either room temperature or 37(C on a rocking platform to ensure uniform distribution of the trypsin reagent over the culture surface. After a standardized period of time, typically 10 minutes, the released cells were removed from each culture dish and measured by the same means as described above, typically electronic particle counting. This ADH cell count is comprised of both trypsin resistant and trypsin sensitive cells as described in U.S. Pat. Nos. 5,637,486, 5,620,888, and 5,681,703.
Anti-apoptotic activity is expressed in the following examples as the calculated concentration of material ((g/ml of media) required to save 50% of the cells released on serum free treatment.
The ability of 18:1-LPA an other LPAs to protect serum-starved cells from apoptotic death was measured using the C3H/10T1/2 cell assay, performed as described in Example 2. The effect of various compounds on the ability of lysophosphatidic acid to protect serum-starved cells from apoptotic death was also measured. Log phase cells were seeded in 60 mm Petri dishes at 175-350 cells per cm2 and maintained in Basal Medium Eagle (BME) supplemented with 10% Heat Inactivated Fetal Bovine Serum (HIFBS). On day 3 the cells were given fresh media. Treatment began on day 5 when the media containing serum was removed and replaced with the LPA mixture to be tested. After 24 hours of treatment, day 6, serum deprived released (SDR) cells (the […] cell population) and adherent (ADH) cells were separated and counted using an electronic cell counter (Coulter Corporation, Hialea, Fla.). […]

Assay [1] concerns rat neonatal cardiomyocytes. Briefly: Cardiomyocyte death induced by serum/glucose deprivation. As to conditions: serum/glucose deprivation. On the procedure: (§1) Cardiomyocytes were prepared from hearts of day-old Sprague Dawley rats by trypsinization and mechanical disaggregation (Simpson, (1985)) Circ. Res. 56:884-894. The cells were resuspended in MEM, 1×MEM vitamins (Gibco), 5% fetal bovine serum and 50 U/ml penicillin-G and pre-plated for 30 minutes to reduce contamination of non-myocytes. The non-adherent cardiac myocytes were separated and seeded in 2 ml in 35 mm dishes at a density of 3.5×10^5 viable cells per ml. The cells were allowed to adhere for 16-24 hours in a 37° C./5% CO2 humidified incubator.
For serum deprivation, the medium was replaced with fresh serum-free RPMI, whereas serum/glucose deprivation was performed using glucose-free RPMI. The induction of cell death by adriamycin or C2-ceramide was accomplished by the addition of the agent prepared in serum-free RPMI. As a model of ischemia, cultures in serum and glucose free RPMI were placed in an airtight chamber and the latter was continuously perfused with oxygen-free gas overlay of 95% N2/5% CO2 for 8 hours at 37° C. To model reperfusion of the ischemic cells, 10% fetal bovine serum, 2 g/L of glucose were added and the cultures were returned to a normal oxygen gas overlay (37° C./5% CO2) in a humidified incubator for 16 hours.
T investigate effects of LPA, LPA plus other phospholipids, PEG or their mixtures on cell death, various combinations of these components were added to cells in serum free medium at the beginning of cytotoxic treatment.
(§2) Because cardiomyocytes are terminally differentiated non-dividing cells, viability was determined by measurement of the decrease in the relative number of adherent cells. […] Adherent cardiomyocytes were collected from culture dishes using 0.25% Trypsin/0.05% EDTA and counted on Coulter Counter ZM and Coulter Channelyzer 256.

Assay [2] has as its system rat neonatal cardiomyocytes. Briefly: Cardiomyocyte death induced by ischemia and reperfusion. As to conditions: in mixture with PEG, FIG. 14. On the procedure:
as §1
For serum deprivation, the medium was replaced with fresh serum-free RPMI, whereas serum/glucose deprivation was performed using glucose-free RPMI. The induction of cell death by adriamycin or C2-ceramide was accomplished by the addition of the agent prepared in serum-free RPMI. As a model of ischemia, cultures in serum and glucose free RPMI were placed in an airtight chamber and the latter was continuously perfused with oxygen-free gas overlay of 95% N2/5% CO2 for 8 hours at 37° C. […]
as §2

The mark [3] stands for this setting: serum-deprived C3H/10T1/2 cells, 24 hours of treatment.

On to `CCCCCCCC/C=C\CCCCCCCC(=O)OCC(O)COP(=O)(O)O` (stereo not shown) [18:1 LPA, oleoyl-lysophosphatidic acid, reference compound], for which the cells protected result with C3H/10T1/2 cells (0.75 (g/ml added together with PS, FIG. 2)) was “approximately 75%”; in the assay with C3H/10T1/2 cells (1:1 PG:PC particles with 23.5% by weight 18:1-LPA, FIG. 3) it was “about 57%”; in the assay with C3H/10T1/2 cells (5 (M, FIG. 5), medium alone 30%) it was “about 62%”; in the assay with C3H/10T1/2 cells (5 (M, FIG. 6)), 75%; in the assay on C3H/10T1/2 cells (15 (M, FIG. 6)), 80%; with C3H/10T1/2 cells (30% (by weight) mixture with 1:1 PA:PI, equivalent to Five Phospholipid Mixture at 10 (g/ml, FIG. 7), medium alone 38%), “about 82%”. Also, in the assay with C3H/10T1/2 cells (incorporated into phosphatidyl glycerol (PG), FIG. 2), the cells protected entry was “up to 90%”. Also, the efficacy entry in the assay with C3H/10T1/2 cells (18:1-LPA/PG particles with 5 to 10 mol % PE-PEG (2000 MW), FIG. 2) is reported as “reduced efficacy”. The cells saved entry in the assay on C3H/10T1/2 cells (23.5 weight percent with PG, FIG. 3) was “about 50%”. The “cells protected from apoptosis” value in the assay with C3H/10T1/2 cells (LPA equivalent to 10 (g/ml Five Phospholipid Mixture, 10% by weight with PG, FIG. 3)) is “approximately 65%”. The anti-apoptotic activity entry is on record as “appeared to be inhibited” in the assay with C3H/10T1/2 cells (combined with BME (containing calcium) and filtered); “preserved the anti-apoptotic activity” in the assay with C3H/10T1/2 cells (combined with BSA in BME (containing calcium)). Besides, the protection from apoptosis result with C3H/10T1/2 cells (combined with polyethylene glycol or BSA) is “protects serum-deprived 10T1/2 cells from apoptosis”. Further, in the assay on C3H/10T1/2 cells (incorporated into PC, PC/PE-PEG, or PC/EtPC, FIG. 8), the “protection from serum deprivation-induced cell death” value is “effective in protecting cells from serum deprivation-induced cell death”. In addition, the “Concentration for Max Effect” value in the assay on C3H/10T1/2 cells (setting [3]) came to 10 µM. Also, the “Maximum effect relative to 18:1 LPA” value with C3H/10T1/2 cells (setting [3]) is on record as 100%. Further, the “Concentration ranges for cardiomyocyte protection” value in assay [1] lay in the range of 0.3 to 10 µM. Moreover, in assay [1], the “Maximum effect relative to 18:1 LPA in cardiomyocytes” value came to 100%. Further, the “protection against cardiomyocyte death” value in assay [2] was “equally protect”.
